Where two headings read alike, the source gives them in different places.
Tests used:
Human brain pericytes = experiment: Tube formation of human brain pericytes on Matrigel; format: cell-based; details: 0.5 μM in water, 24 hr then 6 hr on Matrigel, p<0.15
Experimental: Human brain pericytes (donor) at PD 10 were cultured for a total of 30 hr in 0.5 μM compound 7 dissolved in water. Telomerase activity and tube formation were analyzed.
Brain pericytes were first cultured for 24 hr in a T-75 flask in 0.5 μM compound 7, and then split onto a 24 well plate coated with Matrigel in order to promote tube formation (done in triplicate). 0.5 μM compound 7 was again included in the medium. After 6 hr the samples were fixed and branch points were counted using a microscope, 5 fields/well, with 3 wells/condition. Compound 7 treated pericytes had 1.9 times more branch points than the control (p<0.15).

[1] = Plasma levels and bioavailability in mice; format: in vivo, male C57BL/6 mice; details: male, C57BL/6, mouse, read-out: Bioavailability % F
Experimental: The plasma levels of a compound following a single intravenous, oral, intra-peritoneal, or sub-cutaneous administration in male C57BL/6 mice was determined. Plasma samples were collected and used to determine the plasma concentration of the compound and metabolites. In addition tissue samples, including whisker samples, and peripheral blood mononuclear cells (PBMC) cells were collected for telomerase activity analysis.
[…] mice were divided into treatment groups. The mice were provided ad libitum SLAC-MO1 #W080208 (Shanghai Laboratories Animal Center, Shanghai, China) throughout the in-life portion of the study with the exception of the overnight fasting period prior to oral dosing. Water was available ad libitum.
(§1) Body weights were taken on the day of dose administration. Dose volume was determined based on individual body weight taken on day of dosing.
Blood samples (approximately 300 μL) were collected via cardiac puncture or via retro-orbital puncture after anesthesia into tubes containing K2-EDTA anticoagulant and 1 mg/ml NaF at the various time points after dosing. Blood was stored on ice and then plasma separated via centrifugation (8000 rpm×6 minutes). The plasma was stored at […] until LC-MS/MS analysis.

[2] = Plasma levels and bioavailability in rats; details: male, Sprague Dawley, rat, in vivo, po, 10 mg/kg
Experimental: The plasma levels of a compound following a single intravenous and oral administration in carotid artery-cannulated male Sprague Dawley rats was determined. Plasma samples were collected and used to determine the plasma concentration of the compound and metabolites. In addition tissue samples, including whisker samples and PBMC cells were collected for telomerase activity analysis.
Carotid artery-cannulated male Sprague Dawley rats were divided into treatment groups according to Table 6. The rats were provided ad libitum SLAC-MO1 # YY080208 (Shanghai Laboratories Animal Center, Shanghai, China) throughout the in-life portion of the study with the exception of the overnight fasting period prior to oral dosing. Water was available ad libitum.
The compounds were dissolved in 2% EtOH/98% water to yield a final concentration of 2.5 mg/ml and 1 mg/ml for both intravenous and oral administration, respectively. The concentration of each compound was confirmed by HPLC analysis.
as §1
Blood samples (approximately 250 μL) were collected via cannulae into tubes containing K2-EDTA anticoagulant and 1 mg/ml NaF at the various time points. Blood was stored on ice and then plasma separated via centrifugation (8000 rpm×6 minutes). The plasma was stored at […] until LC-MS/MS analysis.
Percentage of bioavailability was calculated.

telomerase [3] = target: T1, telomerase (Homo sapiens, UniProt O14746); experiment: Keratinocyte cell/TRAP assay (HEKneo-P cells); format: cell-based; design: host or cells: HEKneo-P (pooled neonatal human epidermal keratinocytes); details: for EC50: telomerase activation; for Activity in in vitro HEK assay: 24 hr, 0.01 to 10 μM, vs vehicle control at peak of full dose curve
Description: Harley et al., U.S. Pat. […] Harley et al., U.S. Pat. […] Non-treatment control (NT) was also included. […]

[4] = design: species or system male Beagle dogs; details: male, Beagle, dog, in vivo, po, 10 mg/kg
Experimental: The plasma level of a compound following a single intravenous and oral administration in male Beagle dogs was determined. Plasma samples were collected and used to determine the plasma concentration of the compound and metabolites. In addition tissue samples, including whisker samples and PBMC cells were collected for telomerase activity analysis.
Male Beagle dogs were divided into treatment groups according to Table 5. The dogs were provided ad libitum SLAC-MO1 #W080701 (Shanghai Laboratories Animal Center, Shanghai, China) throughout the in-life portion of the study with the exception of the overnight fasting period prior to oral dosing. Water was available ad libitum.
The compounds were dissolved in 2% EtOH/98% water […] to yield a final concentration of 2.5 mg/ml and 1 mg/ml for both intravenous and oral administration, respectively. The concentration of each compound was confirmed by HPLC analysis.
Doses were administered intravenously via the left femoral vein and then by oral dosing one week later. Body weights were taken on the day of dose administration. Dose volume was determined based on individual body weight taken on day of dosing.
Blood samples (approximately 250 μL) were collected via right femoral vein into tubes containing K2-EDTA anticoagulant and 1 mg/ml NaF at appropriate time points. Blood was stored on ice and then plasma separated via centrifugation (8000 rpm×6 minutes). The plasma was stored at […] until LC-MS/MS analysis.

telomerase [5] = target: T1, telomerase; design: host or cells: peripheral blood mononuclear cells; details: reported by Franzese et al.; cited from earlier work
telomerase [6] = target: T1, telomerase; experiment: In vitro model of fibrosis: TGFβ and bleomycin treated SAECs, gel TRAP assay; format: cell-based; details: bleomycin 10 ug/ml, TGFβ 10 ng/ml
Experimental: In addition a portion of the cells were treated with bleomycin (10 ug/ml) and TGFβ (10 ng/ml). Forty-eight hours after the second treatment, cells were washed and lysed with M-Per lysis buffer. A gel TRAP assay was run to evaluate the telomerase activity in the cells.

T1 sequence (O14746 whole entry): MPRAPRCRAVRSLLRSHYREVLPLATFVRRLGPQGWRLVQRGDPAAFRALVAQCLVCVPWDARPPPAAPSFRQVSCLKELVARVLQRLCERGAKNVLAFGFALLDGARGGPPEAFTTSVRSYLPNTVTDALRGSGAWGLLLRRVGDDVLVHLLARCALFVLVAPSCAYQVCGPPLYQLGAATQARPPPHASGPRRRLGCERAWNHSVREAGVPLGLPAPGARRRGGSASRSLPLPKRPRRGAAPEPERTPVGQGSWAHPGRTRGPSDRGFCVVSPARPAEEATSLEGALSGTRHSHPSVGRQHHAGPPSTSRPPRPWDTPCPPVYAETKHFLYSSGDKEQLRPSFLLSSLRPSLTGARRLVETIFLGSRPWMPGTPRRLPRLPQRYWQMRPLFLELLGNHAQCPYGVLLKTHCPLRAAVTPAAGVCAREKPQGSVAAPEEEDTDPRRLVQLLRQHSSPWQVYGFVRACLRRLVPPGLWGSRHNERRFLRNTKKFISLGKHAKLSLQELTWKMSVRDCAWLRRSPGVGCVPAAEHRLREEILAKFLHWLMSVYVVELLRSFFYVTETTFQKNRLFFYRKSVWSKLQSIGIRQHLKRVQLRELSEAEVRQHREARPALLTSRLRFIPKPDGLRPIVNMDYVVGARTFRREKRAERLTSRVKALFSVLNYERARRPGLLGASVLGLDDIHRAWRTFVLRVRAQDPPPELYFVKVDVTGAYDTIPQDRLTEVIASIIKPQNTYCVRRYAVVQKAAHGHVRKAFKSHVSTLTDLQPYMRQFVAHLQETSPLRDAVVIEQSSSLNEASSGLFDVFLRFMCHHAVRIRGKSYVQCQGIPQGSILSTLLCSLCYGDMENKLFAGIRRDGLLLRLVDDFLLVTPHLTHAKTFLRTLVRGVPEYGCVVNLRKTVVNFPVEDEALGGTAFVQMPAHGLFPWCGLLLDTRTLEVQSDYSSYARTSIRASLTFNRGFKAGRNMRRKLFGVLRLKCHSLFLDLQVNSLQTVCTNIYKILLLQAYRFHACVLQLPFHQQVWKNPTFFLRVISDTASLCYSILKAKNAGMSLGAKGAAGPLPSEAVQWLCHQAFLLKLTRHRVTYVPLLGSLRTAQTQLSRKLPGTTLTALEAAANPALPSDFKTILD

Molecule: CC(C)C(N)C(=O)OC1CC2C3(C)CC(O)C(C4(C)CCC(C(C)(C)O)O4)C3(C)CCC23CC32CCC(OC(=O)C(N)C(C)C)C(C)(C)C12 (stereo not drawn) [Compound 7, 2-(L)-Amino-3-methyl-butyric acid 6α-(2-amino-3-methyl-butyryloxy)-16β-dihydroxy-17-[5-(1-hydroxy-1-methyl-ethyl)-2-methyl-tetrahydro-furan-2-yl]-4,4,13,14-tetramethyl-tetradecahydro-cyclopropa[9,10]cyclopenta[a]phenanthren-3β-yl ester]
- branch points relative to the control (Human brain pericytes): 1.9 times
- bioavailability ([1]; PO, 10 mg/kg, 2% EtOH/98% water): 25%
- bioavailability ([1]; SC, 10 mg/kg, 2% EtOH/98% water): 61%
- Bioavailability % F [2]: 44%
- EC50 (telomerase [3]): 41 to 50 nM

Molecule: CC(C)C(N)C(=O)OC1CC2C3(C)CC(O)C(C4(C)CCC(C(C)(C)O)O4)C3(C)CCC23CC32CCC(O)C(C)(C)C12 (centres unmarked) [Compound 12]
- bioavailability ([1]; IP, 5 mg/kg, 2% EtOH/98% water): 42%
- bioavailability ([1]; PO, 5 mg/kg, 2% EtOH/98% water): 8%
- Bioavailability % F [2]: 27%
- EC50 (telomerase [3]): 28 to 32 nM

Molecule: CCC(C)C(N)C(=O)OC1CCC23CC24CCC2(C)C(C5(C)CCC(C(C)(C)O)O5)C(O)CC2(C)C4CC(O)C3C1(C)C (centres unmarked) [Compound 14]
- Bioavailability % F [4]: 55%
- bioavailability ([1]; PO, 10 mg/kg, 5% PEG400/5% solutol HS-15/90% water): 42%
- Bioavailability % F [2]: 93%
- EC50 (telomerase [3]): 9 to 21 nM

Molecule: CC(C)[C@H](N)C(=O)O[C@H]1CC2C3(CC[C@]4(C)[C@@H]([C@@]5(C)CC[C@@H](C(C)(C)O)O5)[C@@H](O)C[C@@]24C)C[C@@]32CCC(=O)C(C)(C)[C@H]12.Cl (stereo partly drawn) [Compound 30, 2-(L)-Amino-3-methyl butyric acid 16β-hydroxy-17-[5-(1-hydroxy-1-methyl-ethyl)-2-methyl-tetrahydro-furan-2-yl]-4,4,13,14-tetramethyl-3-oxo-tetradecahydro-cyclopropa[9,10]cyclopenta[a]phenanthren-6α-yl ester]
- Max fold increase of activity (telomerase [3]): 3.5 fold
- Activity in in vitro HEK assay (telomerase [3]): + (telomerase activation is 2 fold or more in comparison with vehicle control at the peak of the full dose curve.)

Molecule: CCC(C)[C@H](N)C(=O)OC1CC2C3(C)CC(O)C(C4(C)CCC(C(C)(C)O)O4)C3(C)CCC23CC32CCC(OC(=O)[C@@H](N)C(C)CC)C(C)(C)C12 (some centres unmarked) [Compound 32]
- Max fold increase of activity (telomerase [3]): 3 fold
- concentration at Max fold increase of activity (telomerase [3]): 0.37 to 1.1 µM
- Activity in in vitro HEK assay (telomerase [3]): + (telomerase activation is 2 fold or more in comparison with vehicle control at the peak of the full dose curve.)

Molecule: CC(C)[C@H](N)C(=O)OC1CC2(C)C3CC(O)C4C(C)(C)C(O)CCC45CC35CCC2(C)C1C1(C)CCC(C(C)(C)O)O1 (stereo partly drawn) [Compound 36, 2-(L)-Amino-3-methyl-butyric acid 3β,6α-dihydroxy-16β-hydroxy-17-[5-(1-hydroxy-1-methyl-ethyl)-2-methyl-tetrahydro-furan-2-yl]-4,4,13,14-tetramethyl-tetradecahydro-cyclopropa[9,10]cyclopenta[a]phenanthren-16β-yl ester]
- Max fold increase of activity (telomerase [3]): 3.0 fold
- concentration at Max fold increase of activity (telomerase [3]): 0.01 to 0.12 µM
- Activity in in vitro HEK assay (telomerase [3]): + (telomerase activation is 2 fold or more in comparison with vehicle control at the peak of the full dose curve.)

Molecule: CC(C)(C)NC(=O)[C@@H]1C[C@@H]2CCCC[C@@H]2CN1C[C@@H](O)[C@H](Cc1ccccc1)NC(=O)[C@H](CC(N)=O)NC(=O)c1ccc2ccccc2n1 [Saquinavir]
- telomerase activity in peripheral blood mononuclear cells (telomerase [5]): increased telomerase activity

Molecule: bleomycin
- effect on SAEC telomerase activity (telomerase [6]): suppressed SAEC telomerase activity
